Assay results reported in US20040235747A1, “Methods of treating and/or preventing autoimmune diseases” (Ramot At Tel-Aviv University Ltd., priority 2003, published 2004).

Key:
MOG-induced EAE mice = assay: MOG-induced chronic autoimmune encephalomyelitis (EAE), clinical score; format: in vivo, C57/b mice; settings: NAP intranasal 0.1 microgram/mouse daily; day 11 on, P<0.01, t-test, vs control mixture without NAP (FIG. 1)
splenocytes = assay: Proliferative T-cell response of splenocytes (thymidine incorporation) from MOG-induced EAE mice; format: cell-based, mouse
From the text: FIG. 2 illustrates the thymidine incorporation into splenocytes in a MOG-induced mouse model in the presence (filled circles) or absence (open circles) of NAP.
An additional experiment included proliferative T-cell response performed as described by Offen et al., supra.

## Asn-Ala-Pro-Val-Ser-Ile-Pro-Gln [NAP]
MOG-induced EAE mice
  clinical outcome (clinical manifestations of EAE, score 0-6): significantly improved the clinical outcome
splenocytes; MS model treated with NAP compared to untreated, P<0.01 (FIG. 2)
  proliferative response of splenocytes (cell proliferation, immune response): much reduced
splenocytes; splenocytes of NAP-treated animals, MOG up to 25 micrograms, untreated splenocytes showed increased proliferation even at 2 micrograms/well
  effect of added MOG on splenocyte proliferation: no effect
